Measurements from paper PMC9426524 (mBio, 2022).

Legend:
[1] = target: Bacillus subtilis NadD (Bacillus subtilis, UniProt P54455); type: biochemical
[2] = tested on: CoADR (JCVISYN3A_0887); type: biochemical, Mycoplasma mycoides subsp. capri; conditions: pH 7.5
[3] = target: T1, human DJ-1 (Homo sapiens, UniProt Q99497); assay: deglycase assay; type: biochemical; conditions: cited from earlier work
T1 construct: gene PARK7; recombinant; details in supplement
T1 sequence (Q99497 1-189 limits assumed): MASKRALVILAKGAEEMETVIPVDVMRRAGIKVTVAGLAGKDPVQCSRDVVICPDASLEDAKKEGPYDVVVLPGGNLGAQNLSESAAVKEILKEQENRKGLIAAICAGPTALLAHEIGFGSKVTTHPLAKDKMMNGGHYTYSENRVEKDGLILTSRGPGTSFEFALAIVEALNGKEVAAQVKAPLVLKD

[4] = tested on: JCVISYN3A_0400 (DJ-1 homolog); type: biochemical, Mycoplasma mycoides subsp. capri

Chain of Bacillus subtilis NadD (P54455 whole entry): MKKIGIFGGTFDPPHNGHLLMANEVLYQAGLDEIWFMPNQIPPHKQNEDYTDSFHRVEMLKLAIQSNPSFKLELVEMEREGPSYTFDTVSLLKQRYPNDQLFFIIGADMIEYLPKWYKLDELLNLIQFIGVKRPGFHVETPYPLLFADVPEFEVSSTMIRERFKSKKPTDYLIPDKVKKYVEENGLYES

In the case of `Nc1ncnc2c1ncn2[C@@H]1O[C@H](COP(=O)(O)OP(=O)(O)OP(=O)(O)O)[C@@H](O)[C@H]1O` [ATP], the relative activity [1] is reported as “whereas B. subtilis NadD strongly preferred ATP”.

With `CC(C)(COP(=O)(O)OP(=O)(O)OC[C@H]1O[C@@H](n2cnc3c(N)ncnc32)[C@H](O)[C@@H]1OP(=O)(O)O)[C@@H](O)C(=O)NCCC(=O)NCCSSCCNC(=O)CCNC(=O)[C@H](O)C(C)(C)COP(=O)(O)OP(=O)(O)OC[C@H]1O[C@@H](n2cnc3c(N)ncnc32)[C@H](O)[C@@H]1OP(=O)(O)O` [CoAD] the Km [2] was 170 µM.

In the case of `CC(=O)C(O)SCCNC(=O)CCNC(=O)[C@H](O)C(C)(C)COP(=O)(O)OP(=O)(O)OC[C@H]1O[C@@H](n2cnc3c(N)ncnc32)[C@H](O)[C@@H]1OP(=O)(O)O` (stereo partly shown) [methylglyoxal-CoA hemithioacetal], the Km [3] is given as 144 ± 64 µM.

`CC(=O)C=O` [methylglyoxal] gave a Km [4] of 1230 ± 300 µM.
